How the values were obtained:
[1] = tested on: Wnt ligand-induced signaling in HEK293 cells; assay: Wnt-responsive Super-TOpFlash (STF) luciferase reporter gene assay; format: cell-based; settings: Homo sapiens, Wnt3A condition medium
Procedure: Cellular Reporter Gene Assay to Determine Compound Inhibition of Wnt Signaling Activity
Compound activity in inhibiting Wnt ligand-induced signaling was measured using a Wnt-responsive Super-TOpFlash (STF) luciferase reporter gene assay in HEK293 cells. On day 1 of the assay, cells were plated at a density of 8000 cells per well of 384-well plate in 25 μl medium containing 5% fetal bovine serum (FBS). On the second day, […] condition medium (CM) produced from mouse L cells was added to the cells to induce Wnt signaling, followed by addition of 5 μL of compounds each well in 10-point serial dilution. On the third day, the luciferase activity was measured by the Bright-Glo™ Luciferase Assay System following manufacture's protocol (Promega, E2620). The Inhibition was calculated as: (Maximum Wnt-induced signaling−Sample)/(Maximum Wnt-induced signaling−Background)*100. “Maximum Wnt-induced signaling” is the STF signal level induced by 20% Wnt3A CM without compound; and “Background” is the STF signal level without the addition of Wnt3A CM or compound.

[2] = biological target: human tankyrase 1 PARP catalytic domain, TNKS1P (Homo sapiens (Human), UniProt O95271); assay: TNKS1 autoparsylation assay (LC/MS detection of nicotinamide); settings: read-out: TNKS1 AP IC50, 20 nM enzyme, 250 μM β-NAD+, 60 min
Procedure: (§1) Biochemical Assay to Determine Compound Inhibition of TNKS Enzyme Activity
(§2) The autoparsylation activity of the TNKS 1/2 or PARP1/2 enzymes was measured by the liquid chromatography-mass spectrometry (LC/MS) detection of nicotinamide as readout. Compound activity in inhibiting the TNKS and PARP autoparsylation was evaluated by IC50 measurements. […] For the background control wells, 10 μL of the 5× quenching solution per well was added prior to the addition of β-NAD^+. The % Inhibition was calculated as: (Control−Sample)/(Control−Background)*100.

[3] = biological target: tankyrase 2 protein PARP domain, TNKS2P (Homo sapiens (Human), UniProt Q9H2K2); assay: TNKS2 autoparsylation assay (LC/MS detection of nicotinamide); settings: read-out: TNKS2 AP IC50, 20 nM enzyme, 250 μM β-NAD+, 60 min
Procedure: as §1, §2

[4] = tested on: Non-small lung cancer ABC-1 cells; assay: Cellular proliferation assay (CellTiter-Glo); format: cell-based; settings: Homo sapiens, 72 h; ABC-1 cells, 3 days of compound treatment; read-out: ABC-1 IC50
Procedure: Cellular Proliferation Assay to Determine Compound Inhibition of Cancer Cell Growth
Viable cells were measured after 3 days of compound treatment using the CellTiter-Glo assay (Promega, G7570). Assay was performed following the manufacture protocol.

[5] = tested on: Axin2 protein in SW480 cells; assay: Cellular ELISA assay of Axin2 protein stabilization; format: cell-based; settings: Homo sapiens, 24 hrs, read-out: Axin AC50
Procedure: Cellular ELISA Assay to Determine Compound Effect on Stabilizing the Axin2 Protein Compound activity in stabilizing the Axin2 protein was measured by Sandwich Enzyme-Linked Immuosorbent (ELISA) assay in the colorectal cell line SW480. 30,000 SW480 cells were seeded per well in 96-well plate and incubated overnight prior to compound treatment. […] Cells were then washed with 100 μL of cold Phosphate Buffer Saline (PBS), and lysed in 125 μl of cold 1× lysis buffer (Cell Signaling Technology, 9803) supplemented with Protease inhibitor (Roche, 11836170) and Phosphatase inhibitors (Sigma, P2850, P5726). For the ELISA assay, anti Axin-2 capture antibody (Strategic Diagnostics) antibody was diluted to a concentration of 1 μg/ml (1:1000) in Carbonate Coating buffer, pH 9.2 (Sigma, C3041-50CAP). […], of the diluted anti Axin-2 capture antibody per well was then used to coat the 96-well ELISA plate (Thermo Electron Corp., MicroLite 1 flat bottom plate #7571) overnight at 4° C. […] After blocking, plates were then washed three times with 300 μl/well of wash solution. 100 μL of prepared SW480 cell lysate was then added to each well and incubated at room temperature for 2 hours while shaking gently. After washing, 100 μL of Biotinylated anti-Axin2 antibody (CST, 2151) was added to each well and incubated room temperature for 2 hours. 100 μL of Streptavidin-HRP (R&D systems, DY998) diluted 1:200 in 1% BSA/PBS was then added in each well and incubate for 30 mins at R/T in the dark.

Chain of tankyrase 2 protein PARP domain, TNKS2P (Q9H2K2 959-1164): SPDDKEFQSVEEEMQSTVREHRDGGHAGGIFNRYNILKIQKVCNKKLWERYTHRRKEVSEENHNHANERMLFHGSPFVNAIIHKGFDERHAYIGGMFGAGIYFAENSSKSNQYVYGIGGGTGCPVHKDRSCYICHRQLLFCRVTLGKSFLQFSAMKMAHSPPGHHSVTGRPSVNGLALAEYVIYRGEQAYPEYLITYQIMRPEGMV
Chain of human tankyrase 1 PARP catalytic domain, TNKS1P (O95271 1112-1317): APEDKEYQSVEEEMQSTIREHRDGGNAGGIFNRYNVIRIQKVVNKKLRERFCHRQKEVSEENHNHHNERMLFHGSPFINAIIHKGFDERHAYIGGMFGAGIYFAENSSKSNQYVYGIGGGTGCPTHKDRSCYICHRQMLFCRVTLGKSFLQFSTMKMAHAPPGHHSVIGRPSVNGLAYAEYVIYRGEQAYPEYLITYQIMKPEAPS

| SMILES | IC50 [1] [nM] | IC50 [2] [nM] | IC50 [3] [nM] | IC50 [4] [nM] | AC50 [5] [nM] |
| --- | --- | --- | --- | --- | --- |
| O=C(CN1CCC(C(=O)N2CCc3c(Cl)cccc3C2)CC1)NCc1nc2c(c(=O)[nH]1)COCC2 [Example 81, 2-(4-(5-Chloro-1,2,3,4-tetrahydroisoquinoline-2-carbonyl)piperidin-1-yl)-N-((4-oxo-4,5,7,8-tetrahydro-3H-pyrano[4,3-d]pyrimidin-2-yl)methyl)acetamide] | > 10000 | 761 ± 18 | 244 ± 24 | – | – |
| COc1ccc2c(C3CCN(CC(=O)NCc4nc5c(c(=O)[nH]4)COCC5)CC3)n[nH]c2c1 [Example 58, 2-[4-(6-Methoxy-1H-indazol-3-yl)-piperidin-1-yl]-N-(4-oxo-3,5,7,8-tetrahydro-4H-pyrano[4,3-c]pyrimidin-2-ylmethyl)-acetamide] | 4500 ± 400 | 1490 ± 50 | 311 ± 39 | > 10000 | – |
| CN(Cc1nc2c(c(=O)[nH]1)COCC2)C(=O)CN1CCC(C(=O)c2ccc(F)cc2)CC1 [Example 30] | – | 241 ± 30 | – | – | 6000 ± 500 |
| CC(C)CN(Cc1nc2c(c(=O)[nH]1)COCC2)C(=O)CN1CCC(C(=O)c2ccc(F)cc2)CC1 [Example 26, 2-(4-(4-Fluorobenzoyl)piperidin-1-yl)-N-isobutyl-N-((4-oxo-4,5,7,8-tetrahydro-3H-pyrano[4,3-d]pyrimidin-2-yl)methyl)acetamide] | – | 70 ± 7 | – | 545 | 473 ± 36 |
| O=C(c1ccc(F)cc1)C1CCN(CC(=O)N(Cc2cccnc2)Cc2nc3c(c(=O)[nH]2)COCC3)CC1 [Example 21, 2-(4-(4-Fluorobenzoyl)piperidin-1-yl)-N-((4-oxo-4,5,7,8-tetrahydro-3H-pyrano[4,3-d]pyrimidin-2-yl)methyl)-N-(pyridin-3-ylmethyl)acetamide] | 460 ± 280 | 214 ± 2 | 42 ± 1 | – | – |
| O=C(c1ccc(C(F)(F)F)cc1)C1CCN(CC(=O)N(Cc2nc3c(c(=O)[nH]2)COCC3)CC(F)F)CC1 [Example 75, N-(2,2-Difluoro-ethyl)-N-(4-oxo-3,5,7,8-tetrahydro-4H-pyrano[4,3-d]pyrimidin-2-ylmethyl)-2-[4-(4-trifluoromethyl-benzoyl)-piperidin-1-yl]-acetamide] | 290 ± 130 | 73 ± 5 | 17 ± 1 | 6050 | – |
| COc1ccc(-c2cnn(C3CCN(CC(=O)NCc4nc5c(c(=O)[nH]4)COCC5)CC3)c2)cc1 [Example 60, 2-{4-[4-(4-Methoxy-phenyl)-pyrazol-1-yl]-piperidin-1-yl}-N-(4-oxo-3,5,7,8-tetrahydro-4H-pyrano[4,3-d]pyrimidin-2-ylmethyl)-acetamide] | 1100 ± 110 | 3800 ± 100 | 386 ± 7 | 5850 | – |
| O=C(c1ccc(F)cc1)C1CCN(CC(=O)N(Cc2ccccn2)Cc2nc3c(c(=O)[nH]2)COCC3)CC1 [Example 22, 2-(4-(4-Fluorobenzoyl)piperidin-1-yl)-N-((4-oxo-4,5,7,8-tetrahydro-3H-pyrano[4,3-d]pyrimidin-2-yl)methyl)-N-(pyridin-2-ylmethyl)acetamide] | – | 120 ± 2 | – | 540 ± 280 | 360 ± 190 |
| O=C(c1ccc(F)cc1)C1CCN(CC(=O)N(Cc2nc3c(c(=O)[nH]2)COCC3)Cc2ccc(S(=O)(=O)N3CCOCC3)s2)CC1 [Example 47, 2-[4-(4-Fluoro-benzoyl)-piperidin-1-yl]-N-[5-(morpholine-4-sulfonyl)-thiophen-2-ylmethyl]-N-(4-oxo-3,5,7,8-tetrahydro-4H-pyrano[4,3-d]pyrimidin-2-ylmethyl)-acetamide] | 1830 ± 390 | 561 ± 49 | 66 ± 2 | – | 5000 ± 2300 |
| COc1ccc2c(c1)CCCN2C(=O)C1CCN(CC(=O)NCc2nc3c(c(=O)[nH]2)COCC3)CC1 [Example 80, 2-(4-(6-Methoxy-1,2,3,4-tetrahydroquinoline-1-carbonyl)piperidin-1-yl)-N-((4-oxo-4,5,7,8-tetrahydro-3H-pyrano[4,3-d]pyrimidin-2-yl)methyl)acetamide] | 6400 ± 1100 | > 19000 | 31200 | – | – |
| COc1ccc(C(=O)C2CCN(CC(=O)N(Cc3nc4c(c(=O)[nH]3)COCC4)CC3CC3)CC2)cc1 [Example 5, N-Cyclopropylmethyl-2-[4-(4-methoxy-benzoyl)-piperidin-1-yl]-N-(4-oxo-3,5,7,8-tetrahydro-4H-pyrano[4,3-d]pyrimidin-2-ylmethyl)-acetamide] | – | 15.5 ± 3.5 | – | 32 ± 4 | 60 ± 60 |
| C[C@@H](c1ccc(F)cc1)N(Cc1nc2c(c(=O)[nH]1)COCC2)C(=O)CN1CCC(C(=O)c2ccc(F)cc2)CC1 [Example 35, (S)-2-(4-(4-Fluorobenzoyl)piperidin-1-yl)-N-(1-(4-fluorophenyl)ethyl)-N-((4-oxo-4,5,7,8-tetrahydro-3H-pyrano[4,3-d]pyrimidin-2-yl)methyl)acetamide] | 179 ± 20 | 256 ± 4 | 68 ± 1 | – | – |
| O=C(CN1CCC(C(=O)c2ccc(F)cc2)CC1)NCc1nc2c(c(=O)[nH]1)COCC2 [Example 1, 2-(4-(4-Fluorobenzoyl)piperidin-1-yl)-N-((4-oxo-4,5,7,8-tetrahydro-3H-pyrano[4,3-d]pyrimidin-2-yl)methyl)acetamide] | – | 64 ± 8 | – | 1050 ± 390 | 880 ± 210 |
| CCCN(Cc1nc2c(c(=O)[nH]1)COCC2)C(=O)CN1CCC(C(=O)c2ccc(F)cc2)CC1 [Example 34, 2-(4-(4-Fluorobenzoyl)piperidin-1-yl)-N-((4-oxo-4,5,7,8-tetrahydro-3H-pyrano[4,3-d]pyrimidin-2-yl)methyl)-N-propylacetamide] | – | 46 ± 1 | – | – | 1010 ± 70 |
| O=C(CN1CCC(c2n[nH]c3cc(F)ccc23)CC1)NCc1nc2c(c(=O)[nH]1)COCC2 [Example 57, 2-[4-(6-Fluoro-1H-indazol-3-yl)-piperidin-1-yl]-N-(4-oxo-3,5,7,8-tetrahydro-4H-pyrano[4,3-d]pyrimidin-2-ylmethyl)acetamide] | 207 ± 35 | 1210 ± 100 | 270 ± 10 | 649 | – |
| COc1ccc(-c2nnc(C3CCN(CC(=O)NCc4nc5c(c(=O)[nH]4)COCC5)CC3)o2)cc1 [Example 56, 2-{4-[5-(4-Methoxy-phenyl)-[1,3,4]oxadiazol-2-yl]-piperidin-1-yl}-N-(4-oxo-3,5,7,8-tetrahydro-4H-pyrano[4,3-d]pyrimidin-2-ylmethyl)-acetamide] | 207 ± 21 | 548 ± 39 | 89 ± 3 | 641 | – |
| O=C(c1ccc(F)cc1)C1CCN(CC(=O)N(Cc2ccncc2)Cc2nc3c(c(=O)[nH]2)COCC3)CC1 [Example 20, 2-(4-(4-Fluorobenzoyl)piperidin-1-yl)-N-((4-oxo-4,5,7,8-tetrahydro-3H-pyrano[4,3-d]pyrimidin-2-yl)methyl)-N-(pyridin-4-ylmethyl)acetamide] | 2390 ± 250 | 845 ± 12 | 206 ± 2 | – | – |
| O=C(c1ccc(F)cc1)C1CCN(CC(=O)N(Cc2ccccc2)Cc2nc3c(c(=O)[nH]2)COCC3)CC1 [Example 38, N-Benzyl-2-(4-(4-fluorobenzoyl)piperidin-1-yl)-N-((4-oxo-4,5,7,8-tetrahydro-3H-pyrano[4,3-d]pyrimidin-2-yl)methyl)acetamide] | – | 82 ± 1 | – | 833 | 372 ± 86 |
| O=C(CN1CCC(n2cc(-c3ccccc3)cn2)CC1)NCc1nc2c(c(=O)[nH]1)COCC2 [Example 59, N-(4-Oxo-3,5,7,8-tetrahydro-4H-pyrano[4,3-d]pyrimidin-2-ylmethyl)-2-[4-(4-phenyl-pyrazol-1-yl)-piperidin-1-yl]-acetamide] | 3940 ± 120 | 2250 ± 23 | 188 ± 16 | 8170 | – |

Reference: US9181266B2, “2-piperidin-1-yl-acetamide compounds for use as tankyrase inhibitors” (NOVARTIS AG, priority 2011, dated 2015)
